Where two headings read alike, the source gives them in different places.
What was measured:
Type in all cases: cell-based
K562 cells = assay: modified MTT method, proliferation of K562 cells; details: Homo sapiens, read-out: IC50 on the growth of K562 cells
Experimental: (§1) Five test concentrations 2, 10, 50, 250 and 500 µM were set for each of five derivatives of artemisinin, artemether drug substance, artemisinin, dihydroartemisinin, artesunate were dissolved with dimethyl sulfoxide (DMSO), while the lyophilized powder of artemether was dissolved with normal saline (N.S.), followed by addition of a certain amount of RPMI 1640 complete culture solution to formulate a high-concentration solution, and each of the low-concentration solutions was formulated by proportionate dilution from the high-concentration solution.
(§2) The concentrations of DMSO contained in the solutions at the two relatively high concentrations 500 and 250 µM for the artemether drug substance, artemisinin, dihydroartemisinin, artesunate, used as solvent controls, were formulated with […] culture solution, at which time the test concentrations of DMSO were 1% and 0.5%. The concentrations of the excipients contained in the solutions at the two relatively high concentrations 500 and 250 µM for the preparation of lyophilized powder of artemether were used as solvent controls.
(§3) The positive control was an anti-cancer drug adriamycin (ADM), which was set at three test concentrations (final concentrations) of 0.1, 1 and 10 µg/ml. To ADM stock solution (1 mg/ml) a certain amount of PRMI 1640 complete culture solution was added, to formulate a high-concentration solution, and each of the low-concentration solutions were formulated by proportionate dilutions from the high-concentration solution.
(§4) HL-60: (human promyelocytic leukemia cell line); K562 (human chronic myelocytic leukemia cell line); HT-29 (human colon cancer cell line); PC-3 (human prostate cancer cell line); A549 (human non-small cell lung cancer cell line); MKN-28 (human gastric cancer cell line); Hep2 (human laryngeal cancer cell line), all of which were purchased from Cell Bank of Shanghai Institutes for Biological Sciences, the Chinese Academy of Sciences.
(§5) Influence of the five test samples on the proliferation of 7 human tumor cell lines was determined via a modified MTT method.
(§6) Cells in logarithmic growth phase were taken, adjusted to a certain concentration and then added into a 96 well culture plate. After culture of adherent cells for a period until adherence, the test samples were added; and for suspension cells, the test samples were added after inoculation. 5 test concentrations 2, 10, 50, 250 and 500 µM were set, with 3 parallel wells for each concentration, 10 µl/well; the solvent controls were 0.5% and 1% of isovolumetric DMSO, and the positive controls was ADM at 3 concentrations 0.1, 1 and 10 µg/ml. The samples were loaded followed by culture for a period of time in an incubator at 37°C, 5% CO2, followed by addition of MTT (5 mg/ml) at 20 µl/well, and continued to be cultured for a period of time and added with a three-combined solution [10% SDS - 5% isobutanol - 0.012 mol/L HCl (W/V/V)]. After dissolving in uniformity, it was continued to be placed in the incubator at 37°C, 5% CO2 for a period of time, and the OD value of each well was determined under a wavelength of 570 nm with a microplate reader, according to which the results were calculated.
(§7) The cellular proliferation inhibition rate was calculated in accordance with the following equation: Inhibition rate (%) = (OD valuecontrol well-OD valuesample well)/OD valuecontrol well × 100% [formula]
(§8) When the inhibition rate of DMSO on cells was more than 15%, calculation was carried out using the following equation: Inhibition rate (%) = (OD valuesolvent group-OD valueadministered well)/OD valuesolvent group × 100% [formula]
(§9) The inhibition rate was calculated by using Microsoft Excel 2003, and median inhibitory concentration IC50 was calculated with a LOGIT method, which was used as an indicator for judging the inhibitory capability.

HL-60 cells = assay: modified MTT method, proliferation of HL-60 cells; details: Homo sapiens, read-out: IC50 on the growth of HL-60 cells
Experimental: as §1, §2, §3, §4, §5, §6, §7, §8, §9

A549 cells = assay: modified MTT method, proliferation of A549 cells; details: Homo sapiens, read-out: IC50 on the growth of A549 cells
Experimental: as §1, §2, §3, §4, §5, §6, §7, §8, §9

HT-29 cells = assay: modified MTT method, proliferation of HT-29 cells; details: Homo sapiens
Experimental: as §1, §2, §3, §4, §5, §6, §7, §8, §9
(§10) According to the results of preliminary screening, further experiments were adjusted such that more sensitive cell lines were screened out. […]

PC-3 cells = assay: modified MTT method, proliferation of PC-3 cells; details: Homo sapiens, read-out: IC50 on the growth of PC-3 cells
Experimental: as §1, §2, §3, §4, §5, §6, §7, §8, §9

MKN-28 cells = assay: modified MTT method, proliferation of MKN-28 cells; details: Homo sapiens, MKN-28, 72 h, secondary screening
Experimental: as §1, §2, §3, §4, §5, §6, §7, §8, §9, §10

Hep2 cells = assay: modified MTT method, proliferation of Hep2 cells; details: Homo sapiens, HEp-2, 72 h, secondary screening
Experimental: as §1, §2, §3, §4, §5, §6, §7, §8, §9, §10

7 human tumor cell lines = assay: modified MTT method, summary over the panel of human tumor cell lines; details: on HL-60, K562, MKN-28
Source text: as §4, §5
Cells in logarithmic growth phase were taken, adjusted to a certain concentration and then added into a 96 well culture plate. After culture of adherent cells for a period until adherence, the test samples were added; and for suspension cells, the test samples were added after inoculation. […] After dissolving in uniformity, it was continued to be placed in the incubator at 37°C, 5% CO2 for a period of time, and the OD value of each well was determined under a wavelength of 570 nm with a microplate reader, according to which the results were calculated.
as §9

Work on `C[C@H]1[C@H](OC(=O)CCC(=O)O)O[C@@H]2O[C@@]3(C)CC[C@H]4[C@H](C)CC[C@@H]1[C@@]24OO3` [artesunate] yielded an IC50 (K562 cells; K562, 24 h, Batch 1, 24 h) greater than 1000 µM, an IC50 (K562 cells; K562, 24 h, Batch 2, 24 h) greater than 1000 µM and an IC50 (K562 cells; K562, 24 h, Batch 3, 24 h) of 494 µM. For the same compound, the IC50 (K562 cells; K562, 48 h, Batch 1, 48 h) was 322 µM, the IC50 (K562 cells; K562, 48 h, Batch 2, 48 h) was greater than 1000 µM and the IC50 (K562 cells; K562, 48 h, Batch 3, 48 h) was 141 µM. It also gave an IC50 (K562 cells; K562, 72 h, Batch 1, 72 h) of 39.3 µM, an IC50 (K562 cells; K562, 72 h, Batch 2, 72 h) greater than 1000 µM and an IC50 (K562 cells; K562, 72 h, Batch 3, 72 h) of 90.1 µM. For the same compound, the IC50 (HL-60 cells; HL-60, 24 h, Batch 1, 24 h) was greater than 1000 µM, the IC50 (HL-60 cells; HL-60, 24 h, Batch 2, 24 h) was 269 µM and the IC50 (HL-60 cells; HL-60, 48 h, Batch 1, 48 h) was greater than 1000 µM. The IC50 (HL-60 cells; HL-60, 48 h, Batch 2, 48 h) was 39.5 µM, the IC50 (HL-60 cells; HL-60, 72 h, Batch 1, 72 h) was greater than 1000 µM and the IC50 (HL-60 cells; HL-60, 72 h, Batch 2, 72 h) was 145 µM. The IC50 (A549 cells; A549, 24 h, Batch 1, 24 h) was greater than 1000 µM, the IC50 (A549 cells; A549, 24 h, Batch 2, 24 h) was greater than 1000 µM and the IC50 (A549 cells; A549, 48 h, Batch 1, 48 h) was greater than 1000 µM. It also gave an IC50 (A549 cells; A549, 48 h, Batch 2, 48 h) of 272 µM, an IC50 (A549 cells; A549, 72 h, Batch 1, 72 h) greater than 1000 µM and an IC50 (A549 cells; A549, 72 h, Batch 2, 72 h) of 225 µM. The IC50 (HT-29 cells; HT-29, 24 h, preliminary screening, Batch 1, 24 h, read-out: IC50 on the growth of HT-29 cells) was greater than 1000 µM, the IC50 (HT-29 cells; HT-29, 24 h, preliminary screening, Batch 2, 24 h, read-out: IC50 on the growth of HT-29 cells) was 323 µM and the IC50 (HT-29 cells; HT-29, 48 h, preliminary screening, Batch 1, 48 h, read-out: IC50 on the growth of HT-29 cells) was greater than 1000 µM. For the same compound, the IC50 (HT-29 cells; HT-29, 48 h, preliminary screening, Batch 2, 48 h, read-out: IC50 on the growth of HT-29 cells) was greater than 1000 µM, the IC50 (HT-29 cells; HT-29, 72 h, preliminary screening, Batch 1, 72 h, read-out: IC50 on the growth of HT-29 cells) was greater than 1000 µM and the IC50 (HT-29 cells; HT-29, 72 h, preliminary screening, Batch 2, 72 h, read-out: IC50 on the growth of HT-29 cells) was 438 µM. For the same compound, the IC50 (HT-29 cells; HT-29, 72 h, secondary screening, 72 h, Batch 1, read-out: IC50 on the growth of HT-29 cells (72 h)) was 328 µM, the IC50 (HT-29 cells; HT-29, 72 h, secondary screening, 72 h, Batch 2, read-out: IC50 on the growth of HT-29 cells (72 h)) was 306 µM and the IC50 (HT-29 cells; HT-29, 72 h, secondary screening, 72 h, Batch 3, read-out: IC50 on the growth of HT-29 cells (72 h)) was 200 µM. The IC50 (HT-29 cells; HT-29, 72 h, secondary screening, 72 h, average, read-out: IC50 on the growth of HT-29 cells (72 h)) was 225 µM, the IC50 (PC-3 cells; PC-3, 24 h, Batch 1, 24 h) was greater than 1000 µM and the IC50 (PC-3 cells; PC-3, 24 h, Batch 2, 24 h) was greater than 1000 µM. It also gave an IC50 (PC-3 cells; PC-3, 48 h, Batch 1, 48 h) greater than 1000 µM, an IC50 (PC-3 cells; PC-3, 48 h, Batch 2, 48 h) greater than 1000 µM and an IC50 (PC-3 cells; PC-3, 72 h, Batch 1, 72 h) greater than 1000 µM. For the same compound, the IC50 (PC-3 cells; PC-3, 72 h, Batch 2, 72 h) was greater than 1000 µM, the IC50 (MKN-28 cells; Average, read-out: IC50 on the growth of MKN-28 cells (72 h)) was 27.9 µM and the IC50 (MKN-28 cells; Batch 1, read-out: IC50 on the growth of MKN-28 cells (72 h)) was 35.3 µM. The IC50 (MKN-28 cells; Batch 2, read-out: IC50 on the growth of MKN-28 cells (72 h)) was 28.1 µM, the IC50 (MKN-28 cells; Batch 3, read-out: IC50 on the growth of MKN-28 cells (72 h)) was 21.4 µM and the IC50 (Hep2 cells; Batch 1, read-out: IC50 on the growth of Hep2 cells (72 h)) was 119 µM. For the same compound, the IC50 (Hep2 cells; Batch 2, read-out: IC50 on the growth of Hep2 cells (72 h)) was 93.2 µM, the IC50 (Hep2 cells; Batch 3, read-out: IC50 on the growth of Hep2 cells (72 h)) was 212 µM and the IC50 (Hep2 cells; average, read-out: IC50 on the growth of Hep2 cells (72 h)) was 149 µM. The “inhibitory effect in vitro” value (7 human tumor cell lines) was “only shows inhibitory effect”.

From patent EP2926811A1, “ARTEMETHER-CONTAINING PHARMACEUTICAL COMPOSITION, PREPARATION, AND USE THEREOF” (Kunming Pharmaceutical Corp., priority 2012, dated 2014)
